Measured values published in PubChem BioAssay (NCI).
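The compound was tested at five concentrations on cells cultured in 96-well plates, with a 48-hour exposure period. GI50 is the concentration that inhibits growth by half. TGI: concentration producing complete growth inhibition.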

Tests used:
Assay in all cases: inhibition of tumour cell growth, NCI panel, 48 h
DU-145 prostate = tested on: DU-145 prostate
T-47D breast = tested on: T-47D breast
SF-539 CNS = tested on: SF-539 CNS
HS 578T breast = tested on: HS 578T breast
HCT-116 colon = tested on: HCT-116 colon
OVCAR-8 ovarian = tested on: OVCAR-8 ovarian
OVCAR-3 ovarian = tested on: OVCAR-3 ovarian
NCI-H226 lung = tested on: NCI-H226 lung
MOLT-4 leukemia = tested on: MOLT-4 leukemia
BT-549 breast = tested on: BT-549 breast

SMILES	TGI (DU-145 prostate) [µM]	TGI (T-47D breast) [µM]	TGI (SF-539 CNS) [µM]	TGI (HS 578T breast) [µM]	TGI (HCT-116 colon) [µM]	TGI (OVCAR-8 ovarian) [µM]	TGI (OVCAR-3 ovarian) [µM]	TGI (NCI-H226 lung) [µM]	TGI (MOLT-4 leukemia) [µM]	TGI (BT-549 breast) [µM]	GI50 (DU-145 prostate) [µM]	GI50 (T-47D breast) [µM]	GI50 (SF-539 CNS) [µM]	GI50 (HS 578T breast) [µM]	GI50 (HCT-116 colon) [µM]	GI50 (OVCAR-8 ovarian) [µM]	GI50 (OVCAR-3 ovarian) [µM]	GI50 (NCI-H226 lung) [µM]	GI50 (MOLT-4 leukemia) [µM]	GI50 (BT-549 breast) [µM]
C=CCCC1(CC(Sc2ccccc2)P(=O)(c2ccccc2)c2ccccc2)OCCO1 (stereo not drawn)	> 10	> 10	> 10	> 10	> 10	> 10	> 10	> 10	> 10	> 10	–	–	–	–	–	–	–	–	–	–
N#CCCC(CCC#N)(CCC#N)NO	> 100	> 100	> 100	> 100	> 100	> 100	–	> 100	–	> 100	–	–	–	–	–	–	–	–	–	–
C[C@@H](c1ccccc1)n1c(N)c(C#N)c2ccc([N+](=O)[O-])cc2c1=O	33	51.1	–	69.4	28.8	30.6	–	13.2	–	30	–	–	–	–	–	–	–	–	–	–
CCCCCCCCCCCC(=O)OCC(C[As](=O)(O)O)OC(=O)CCCCCCCCCCC (stereo not drawn)	35.6	42.3	32	13.3	18.3	24.8	22.8	42.9	> 41.6	23.3	–	–	–	–	–	–	–	–	–	–
COCc1nc2c(OC)c(-c3nc4nc(N5CCN(C)CC5)ccc4[nH]3)cc(OC)c2n1C	> 100	> 100	27.1	> 100	> 100	> 100	> 100	87.4	49.6	> 100	–	–	–	–	–	–	–	–	–	–
CN(C(=O)Cc1cccc(N=C=S)c1)[C@H]1CCCC[C@@H]1N1CCCC1	27.7	26.8	–	45	26	42.2	28	–	29	23.8	–	–	–	–	–	–	–	–	–	–
O=C1CC(c2cccc([N+](=O)[O-])c2)C2(C(=O)NC(=O)NC2=O)C(c2cccc([N+](=O)[O-])c2)C1 (stereo not drawn)	> 100	–	> 100	> 100	42.8	> 100	58.2	> 100	> 100	> 100	–	–	–	–	–	–	–	–	–	–
O=C(NC(Cc1ccccc1)(Cc1ccc(O)cn1)C(=O)O)c1ccccc1 (stereo not drawn)	> 100	–	> 100	> 100	> 100	> 100	> 100	> 100	> 100	> 100	–	–	–	–	–	–	–	–	–	–
CCOC(=O)c1c(N2CCOCC2)[nH]c(=O)c(C(c2c(Cl)cccc2Cl)c2c(O)c(C(=O)OCC)c(N3CCOCC3)[nH]c2=O)c1O	24.6	13.2	11	19.4	8.83	20.5	12.1	27.3	5.51	19.6	–	–	–	–	–	–	–	–	–	–
CO/C=C(/C(=O)OC)c1ccccc1COc1cccc(C(F)(F)F)c1	> 100	91.4	> 100	> 100	> 100	> 100	55	71.2	> 100	> 100	–	–	–	–	–	–	–	–	–	–
C[N+]1(C)CCc2cc(O)c(O)cc2C1Cc1ccc(O)c(O)c1 (stereo not drawn)	> 100	54.7	> 100	> 100	47.8	> 100	> 100	> 100	68.8	> 100	–	–	–	–	–	–	–	–	–	–
O=C(NCP(=O)(c1ccccc1)c1ccccc1)OCc1ccccc1	> 100	> 100	> 100	> 100	> 100	> 100	> 100	> 100	> 100	> 100	–	–	–	–	–	–	–	–	–	–
NNC(=S)N/N=C(/C(=O)Nc1ccc(Cl)c(Cl)c1)C(C1OC(=O)c2ccccc21)[N+](=O)[O-] (stereo not drawn)	–	> 100	> 100	> 100	> 100	> 100	> 100	> 100	> 100	> 100	–	–	–	–	–	–	–	–	–	–
COC(=O)C1=CS/C(=C2\S[C@@H]3[C@H](S2)[C@H]2C=C[C@@H]3C2)S1	> 100	> 100	32.5	> 100	> 100	> 100	> 100	> 100	> 100	> 100	–	–	–	–	–	–	–	–	–	–
Cc1ccc([N+](=O)[O-])c2c(NCCC[N+](C)(C)[O-])c3ccccc3nc12	8.19	7	9.76	21.7	5	49.1	> 41.3	5.17	–	4.81	–	–	–	–	–	–	–	–	–	–
Cc1ccc(S(=O)(=O)N/N=C2/CCCOC2)cc1	> 100	> 100	> 100	> 100	> 100	> 100	> 100	> 100	> 100	> 100	–	–	–	–	–	–	–	–	–	–
O=c1cc(N2CCCC2)[nH]c(=O)n1-c1cccc(Cl)c1	> 100	> 100	> 100	> 100	> 100	> 100	> 100	> 100	> 100	> 100	–	–	–	–	–	–	–	–	–	–
COc1ccccc1CNCCCN1C(=O)c2ccc3c4c(ccc(c24)C1=O)C(=O)N(CCCNCCNCCCN)C3=O	12.5	4.99	9.58	42.9	3.04	11.7	5.65	21.3	5.81	6.43	3.65	1.51	2.88	5.51	0.717	2.08	2.16	2.99	1.73	2.58
CC1(C)OC(=O)N(c2ccccc2)C12C=Cc1cc([N+](=O)[O-])ccc1O2 (stereo not drawn)	> 100	86.9	–	> 100	> 100	> 100	> 100	> 100	84.9	> 100	–	–	–	–	–	–	–	–	–	–
COC(=O)Nc1nc2ccc(S(=O)(=O)SC)cc2[nH]1	27.1	30.4	39.3	> 100	24.5	30.6	> 100	> 100	> 100	22.7	–	–	–	–	–	–	–	–	–	–
Nc1ccc(Cc2c(N)[nH]c(=O)[nH]c2=O)cc1	> 100	> 100	> 100	> 100	> 100	> 100	> 100	> 100	> 100	> 100	–	–	–	–	–	–	–	–	–	–

SMILES	TGI (DU-145 prostate) [µM]	TGI (T-47D breast) [µM]	TGI (SF-539 CNS) [µM]	TGI (HS 578T breast) [µM]	TGI (HCT-116 colon) [µM]	TGI (OVCAR-8 ovarian) [µM]	TGI (OVCAR-3 ovarian) [µM]	TGI (NCI-H226 lung) [µM]	TGI (MOLT-4 leukemia) [µM]	TGI (BT-549 breast) [µM]	GI50 (DU-145 prostate) [µM]	GI50 (T-47D breast) [µM]	GI50 (SF-539 CNS) [µM]	GI50 (HS 578T breast) [µM]	GI50 (HCT-116 colon) [µM]	GI50 (OVCAR-8 ovarian) [µM]	GI50 (OVCAR-3 ovarian) [µM]	GI50 (NCI-H226 lung) [µM]	GI50 (MOLT-4 leukemia) [µM]	GI50 (BT-549 breast) [µM]
CC(=O)[C@@H](C)C(=O)N1C(=O)OC[C@@]12[C@@H]1CC[C@@H](C1)C2(C)C	> 100	> 100	> 100	> 100	> 100	> 100	–	> 100	–	> 100	–	–	–	–	–	–	–	–	–	–
C/C(=N/NC(N)=S)c1ccc[nH]1	> 100	> 100	> 100	> 100	> 100	> 100	> 100	> 100	> 100	> 100	–	–	–	–	–	–	–	–	–	–
CCc1cc(Cc2cc(CC)c(NC(=O)C(=O)CC(=O)c3sc(-c4cccnc4)nc3C)c(CC)c2)cc(CC)c1NC(=O)C(=O)CC(=O)c1sc(-c2cccnc2)nc1C	> 100	> 100	> 100	> 100	> 100	> 100	> 100	> 100	> 100	> 100	–	–	–	–	–	–	–	–	–	–
O=C(N/N=C\C=C\c1ccc([N+](=O)[O-])o1)C(=O)N/N=C\C=C\c1ccc([N+](=O)[O-])o1	> 100	> 100	> 100	> 100	> 100	59.1	55	> 100	> 100	> 100	–	–	–	–	–	–	–	–	–	–
CCOC(=O)c1cn2c(n1)sc1cc(Cl)ccc12	> 100	> 100	26	> 100	13.6	> 100	64.5	> 100	> 100	> 100	–	–	–	–	–	–	–	–	–	–
CCC(=O)Oc1ccc2c(c1)c(=O)c1c(NCCCN(C)C)ccc3nnn2c31	16.7	31	13.9	21.6	14.4	15.1	21	11.8	5.69	24.7	–	–	–	–	–	–	–	–	–	–
C(/C=C/Nc1ccc(Oc2ccccc2)cc1)=Nc1ccc(Oc2ccccc2)cc1	39.5	–	32.9	43.4	31.2	38.8	34.3	> 100	–	29.3	–	–	–	–	–	–	–	–	–	–
C=C(C)[C@H]1Cc2c(ccc3c2O[C@@H]2COc4cc(OC)c(OC)cc4[C@@H]2C3=O)O1	38.9	> 97.1	3.36	0.488	23.5	10.1	3.05	31.3	45.2	9.23	–	–	–	–	–	–	–	–	–	–
C1=Cc2cc3c(c4nccc(c24)N1)OCO3	26.6	34.8	–	32.5	17	> 46.8	> 100	36.7	> 46.8	48.8	–	–	–	–	–	–	–	–	–	–
O=C1c2ccccc2C(=O)N1CCCCNOCCCN1C(=O)c2ccccc2C1=O	> 100	> 100	–	> 100	> 100	> 100	> 100	> 100	> 100	> 100	–	–	–	–	–	–	–	–	–	–
N#Cc1c(-c2ccccc2)[nH]c2ccc(Cl)cc2c1=O	> 100	> 100	> 100	> 100	> 100	> 100	> 100	> 100	> 100	80.9	–	–	–	–	–	–	–	–	–	–
CC(=O)Oc1ccc2cc(-c3ccccc3OC(C)=O)c(=O)oc2c1	> 100	56.7	> 100	> 100	> 100	> 100	> 100	70.7	> 100	> 100	–	–	–	–	–	–	–	–	–	–
CCOC(=O)Cc1nc2cc(F)c(F)cc2[nH]c1=O	> 100	–	> 100	> 100	> 100	> 100	> 100	> 100	> 100	> 100	–	–	–	–	–	–	–	–	–	–
CC1(C)C[C@@H]2C1CCC1(C)CC2(O)CC[C@H]1O (stereo partly drawn)	–	> 100	–	> 100	–	> 100	> 100	> 100	> 100	> 100	–	–	–	–	–	–	–	–	–	–
CC(=O)O[C@H]1C(=O)[C@@]2(C)[C@H]([C@H](OC(=O)c3ccoc3)[C@]3(O)C[C@H](OC(=O)[C@H](O)[C@@H](NC(=O)c4ccccc4)c4ccccc4)C(C)=C1C3(C)C)[C@]1(OC(C)=O)CO[C@@H]1C[C@@H]2O	> 12.5	> 12.5	0.221	0.612	0.366	> 12.5	0.752	–	> 11.6	> 12.5	–	–	–	–	–	–	–	–	–	–
CCCc1c(O)nc(Nc2nc3ccccc3[nH]2)[nH]c1=O	> 100	> 100	> 100	> 100	> 100	> 100	–	> 100	> 100	> 100	–	–	–	–	–	–	–	–	–	–
CCOC(=O)C1C(=O)CC1(C)C (stereo not drawn)	> 10	> 10	> 10	> 10	> 10	> 10	> 10	> 10	> 10	> 10	–	–	–	–	–	–	–	–	–	–
COC(=O)c1cc2c(cc1CC(Cc1ccc3c(c1)CCCC3)C(=O)OC)CCCC2 (stereo not drawn)	> 100	> 100	> 100	> 100	> 100	> 100	> 100	> 100	> 100	> 100	–	–	–	–	–	–	–	–	–	–
CN(C)CCCN=c1c2ccccc2n(O)c2ccccc12	> 100	> 100	> 100	> 100	> 100	> 100	> 100	72.7	> 100	63.4	–	–	–	–	–	–	–	–	–	–
Nc1nc(-c2ccccc2)cc(-c2ccc(OCc3ccccc3)cc2O)n1	> 100	–	> 100	> 100	> 100	> 100	89.1	> 100	> 100	> 100	–	–	–	–	–	–	–	–	–	–
COC1=C(OC)C(=O)C(Cc2c(C)nc3sccn23)=C(C)C1=O	38.6	> 100	31.2	58.5	64.2	33.6	34.3	–	–	31	–	–	–	–	–	–	–	–	–	–
